Assay results from patent US20020028807A1, “Non-nucleoside reverse transcriptase inhibitors” (priority 2000, published 2002).

Experiments:
HIV-1 RT K103N/P225H = target: T1, HIV-1 RT K103N/P225H (Human immunodeficiency virus type 1 group M subtype B, UniProt P03366, K702N/P824H); test: Reverse transcriptase (RT) assay, K103N/P225H mutant; assay type: biochemical
T1 construct: an HIV RT clone pKRT2 containing only the RT p66 gene regulated by the lac operon/trc promoter; made in house; host or cells: E. coli JM109, vector pKK233-2
From the text: (§1) Among the enzymes for which Human Immunodeficiency Virus (HIV-1) encodes is a reverse transcriptase (1), so-named because it transcribes a DNA copy from an RNA template. This activity can be quantitatively measured in a cell-free enzyme assay and is based upon the observation that reverse transcriptase is able to use a synthetic template poly r(C) primed with a biotinylated oligo d(G) to transcribe a radio-labelled DNA strand utilising 3H-dGTP as a substrate. The assay described below utilises the wild-type enzyme (which is the predominant form of the enzyme observed in patients infected with HIV-1) and can also be used with mutant RT enzymes (for example, Y181C, prepared by site-directed mutagenesis in which the tyrosine residue at codon 181 has been replaced by a cysteine residue) in analogous assay conditions. This assay allows compounds to be evaluated for their effectiveness at inhibiting the mutant enzymes.
(§2) Some HIV-1 IIIB clone BH10 RT mutants were provided by Dr. C.-K. Shih (Boehringer Ingelheim Pharmaceutials Inc., U.S.A.) in the vector pKK233-2 (Pharmacia). Briefly an HIV RT clone pKRT2 containing only the RT p66 gene regulated by the lac operon/trc promoter was obtained from Dr. W. Summers (Yale University) (2). A variety of specific amino acid substitutions were introduced into the wild-type RT gene by site-directed mutagenesis. RT clones were subcloned into the pKK233-2 bacterial expression vector. Clones provided included wild-type, Val106Ala, Tyr181Cys, Tyr188Cys, Tyr188Leu, Gly190Ala and Pro236Leu. Others were made in-house by site-directed mutagenesis of the pKK233-2 RT clones including Lys103Asn, Lys103Asn/Tyr181Cys, Lys103Asn/Leu100Ile, Lys103Asn/Pro225His, and Lys103Asn/Val108Ile.
(§3) Purification of recombinant reverse transcriptase was performed using a combination of methods previously described (3). A single colony from a fresh plate of transformed JM109 cells was used to initiate growth of a pre-culture grown o/n at 37° C. Two liters of growth medium were inoculated with this pre-culture. At OD600˜1.5 (5-6 h at 37° C.), RT gene expression was induced with IPTG (1 mM final), and the fermentation was continued for a few more hours at 37° C. After centrifugation, supernatants were discarded while cell pellets were pooled and stored at −80° C. until purification. Cells were thawed at 4° C. overnight and suspended in lysis buffer (MES 50 mM pH 6, EDTA 1 mM, 10% v/v glyerol, 0.02% w/v OBG, 0.02% w/v sodium azide). Lysozyme was added and the mixture was incubated on ice for 40 minutes. After homogenization using a bounce in presence of lysozyme and sonication, the cells were centrifuged for 30 minutes. Supernatant (S1) was saved and stored at 4° C. The centrifuged pellet was resuspended in extraction buffer (MES 50 mM pH 6, KPO4 50 mM pH 6, KCl 100 mM, 10% v/v glycerol, 0.02% w/v OBG, 0.02% w/v sodium axide) and stirred for 30 minutes at 4° C. This second mixture was centrifuged again and the supernatant (S2) was saved. The above procedure was repeated 2 more times saving supernatants S3 and S4 and one last extraction was performed overnight (S5). Polymin P (0.005% final) was added to the combined supernatants to remove nucleic acids. This solution was stirred for 75 minutes at 4° C. and centrifuged for 1 h. The supernatant (SS1) was precipitated on ice with 20% w/v ammonium sulfate and stirred for 1 h at 4° C. The mixture was then centrifuged and the resulting supernatant (SS2) was precipitated with additional 40% w/v ammonium sulfate (60% total), stirred for 1 h and centrifuged again. The final pellet (P1) was stored overnight at 4° C. before undergoing purification the following day. All steps of the purification were performed at 4° C. unless otherwise stated.
(§4) Pellet (P1) was resuspended into MES 50 mM pH 6, KPO4 10 mM pH 6, KCl 100 mM, 10% v/v glycerol, 0.02% w/v OBG, 0.02% w/v sodium azide. The suspension was dialysis against the same buffer overnight using 12-14 kD MWCO dialysis tubing. […]

HIV-1 RT K103N = target: T2, HIV-1 RT K103N (Human immunodeficiency virus type 1 group M subtype B, UniProt P03366, K702N); test: Reverse transcriptase (RT) assay, K103N mutant; assay type: biochemical
T2 construct: an HIV RT clone pKRT2 containing only the RT p66 gene regulated by the lac operon/trc promoter; made in house; host or cells: E. coli JM109, vector pKK233-2
From the text: as §1, §2, §3, §4

HIV-1 RT Y188L = target: T3, HIV-1 RT Y188L (Human immunodeficiency virus type 1 group M subtype B, UniProt P03366, Y787L); test: Reverse transcriptase (RT) assay, Y188L mutant; assay type: biochemical
T3 construct: an HIV RT clone pKRT2 containing only the RT p66 gene regulated by the lac operon/trc promoter; made in house; host or cells: E. coli JM109, vector pKK233-2
From the text: as §1, §2, §3, §4

HIV-1 RT K103N/V108I = target: T4, HIV-1 RT K103N/V108I (Human immunodeficiency virus type 1 group M subtype B, UniProt P03366, K702N/V707I); test: Reverse transcriptase (RT) assay, K103N/V108I mutant; assay type: biochemical
T4 construct: an HIV RT clone pKRT2 containing only the RT p66 gene regulated by the lac operon/trc promoter; made in house; host or cells: E. coli JM109, vector pKK233-2
From the text: as §1, §2, §3, §4

HIV-1 RT Y181C = target: T5, HIV-1 RT Y181C (Human immunodeficiency virus type 1 group M subtype B, UniProt P03366, Y780C); test: Reverse transcriptase (RT) assay, Y181C mutant; assay type: biochemical
T5 construct: an HIV RT clone pKRT2 containing only the RT p66 gene regulated by the lac operon/trc promoter; made in house; host or cells: E. coli JM109, vector pKK233-2
From the text: as §1, §2, §3, §4

HIV-1 RT V106A = target: T6, HIV-1 RT V106A (Human immunodeficiency virus type 1 group M subtype B, UniProt P03366, V705A); test: Reverse transcriptase (RT) assay, V106A mutant; assay type: biochemical
T6 construct: an HIV RT clone pKRT2 containing only the RT p66 gene regulated by the lac operon/trc promoter; made in house; host or cells: E. coli JM109, vector pKK233-2
From the text: as §1, §2, §3, §4

HIV-1 RT wild-type (WT) = target: T7, HIV-1 RT wild-type (WT) (Human immunodeficiency virus type 1 group M subtype B, UniProt P03366); test: Reverse transcriptase (RT) assay, wild-type enzyme; assay type: biochemical
T7 construct: an HIV RT clone pKRT2 containing only the RT p66 gene regulated by the lac operon/trc promoter; made in house; host or cells: E. coli JM109, vector pKK233-2
From the text: as §1, §2, §3, §4

HIV-1 RT K103N/L100I = target: T8, HIV-1 RT K103N/L100I (Human immunodeficiency virus type 1 group M subtype B, UniProt P03366, K702N/L699I); test: Reverse transcriptase (RT) assay, K103N/L100I mutant; assay type: biochemical
T8 construct: an HIV RT clone pKRT2 containing only the RT p66 gene regulated by the lac operon/trc promoter; made in house; host or cells: E. coli JM109, vector pKK233-2
From the text: as §1, §2, §3, §4

HIV-1 RT K103N/Y181C = target: T9, HIV-1 RT K103N/Y181C (Human immunodeficiency virus type 1 group M subtype B, UniProt P03366, K702N/Y780C); test: Reverse transcriptase (RT) assay, K103N/Y181C mutant; assay type: biochemical
T9 construct: an HIV RT clone pKRT2 containing only the RT p66 gene regulated by the lac operon/trc promoter; made in house; host or cells: E. coli JM109, vector pKK233-2
From the text: as §1, §2, §3, §4

[1] = system: HIV coding for wild-type reverse transcriptase (WT RT); test: ELISA (p24) assay of HIV replication in C8166 cell culture, wild-type RT virus; assay type: cell-based, HIV-1; details: Human immunodeficiency virus 1, C8166, 72 h, read-out: EC50 WT RT
Method: Compounds of the invention were tested for their ability to inhibit HIV replication in cell culture in a 96-well plate assay. Complete RPMI 1640, consisting of RPMI 1640+10% fetal bovine serum, 10 μg/ml gentamycin and 10 μM β-mercaptoethanol was used for dilution of the compound as well as cell growth medium. The T lymphocyte cell line C8166 was infected at a multiplicity of infection of 0.001 with viruses coding for wild-type and mutant reverse transcriptase. Cells were then incubated for three days in the presence of serial dilutions of the compounds of the invention. The supernatant was pooled from eight replica wells and the concentration of extracellular p24 was determined using a commercially available HIV-1 p24 antigen assay kit (Beckman-Coulter®). The level of inhibition (% inhibition) was calculated with the following equation: [formula]

Row | Compound | IC50 (HIV-1 RT K103N/P225H) [nM] | IC50 (HIV-1 RT K103N) [nM] | IC50 (HIV-1 RT Y188L) [nM] | IC50 (HIV-1 RT K103N/V108I) [nM] | IC50 (HIV-1 RT Y181C) [nM] | IC50 (HIV-1 RT V106A) [nM] | IC50 (HIV-1 RT wild-type (WT)) [nM] | IC50 (HIV-1 RT K103N/L100I) [nM] | IC50 (HIV-1 RT K103N/Y181C) [nM] | EC50 [1] [nM]
1 | CCN1c2ncc(CCOc3ccnc4ccccc34)cc2C(=O)Nc2c(C)cc(Cl)nc21 [compound 1, 2-Chloro-5,11-dihydro-11-ethyl-4-methyl-8-{2-(4-quinolinyloxy)ethyl}-6H-dipyrido[3,2-b:2′,3′-e][1,4]diazepin-6-one] | 31.2 | 19 | 2740 | 29 | 20 | 132 | 10.5 | 28.5 | 52 | 2.6
2 | Cc1ccnc2c1NC(=O)c1cc(CCOc3ccnc4ccccc34)cnc1N2C1CC1 [compound 3, 11-(Cyclopropyl)-5,11-dihydro-4-methyl-8-{2-(4-quinolinyloxy)ethyl}-6H-dipyrido[3,2-b:2′,3′-e][1,4]diazepin-6-one] | 56 | 45 | 3240 | 47 | 73 | 79 | 16.5 | 124 | 612 | 1.3
3 | CCN1c2ncc(CCOc3ccnc4ccccc34)cc2C(=O)N(C)c2ccc(F)nc21 [compound 4, 5,11-Dihydro-11-ethyl-2-fluoro-5-methyl-8-{2-(4-quinolinyloxy)ethyl}-6H-dipyrido[3,2-b:2′,3′-e][1,4]diazepin-6-one] | 27 | 22.5 | 520 | 32 | 26 | 206 | 11 | 108 | 52 | 0.98
4 | Cc1cc(F)nc2c1NC(=O)c1cc(CCOc3ccnc4ccccc34)cnc1N2C1CC1 [compound 5, 11-(Cyclopropyl)-5,11-dihydro-2-fluoro-4-methyl-8-{2-(4-quinolinyloxy)-ethyl}-6H-dipyrido[3,2-b:2′,3′-e][1,4]diazepin-6-one] | 38 | 37.5 | 2540 | 38 | 76 | 61 | 19 | 98 | 536 | 0.83
5 | CN1C(=O)c2cc(CCOc3ccnc4ccccc34)cnc2N(C2CC2)c2nc(Cl)ccc21 [compound 6, 2-Chloro-11-cyclopropyl-5,11-dihydro-5-methyl-8-{2-(4-quinolinyloxy)-ethyl}-6H-dipyrido[3,2-b:2′,3′-e][1,4]diazepin-6-one] | – | – | – | – | – | – | 25 | – | – | –
6 | CCN1c2ncc(CCOc3ccnc4ccccc34)cc2C(=O)Nc2c(C)cc(F)nc21 [compound 7, 5,11-Dihydro-11-ethyl-2-fluoro-4-methyl-8-{2-(4-quinolinyloxy)ethyl}-6H-dipyrido[3,2-b:2′,3′-e][1,4]diazepin-6-one] | 46 | 26 | 4320 | 45 | 38 | 74 | 9.8 | 98 | 199 | 1.1
7 | CCN1c2ncc(CCOc3ccnc4ccccc34)cc2C(=O)Nc2c(C)ccnc21 [compound 8, 5,11-Dihydro-11-ethyl-4-methyl-8-{2-(4-quinolinyloxy)ethyl}-6H-dipyrido[3,2-b:2′,3′-e][1,4]diazepin-6-one] | 67 | 37 | 7510 | 63 | 43 | 190 | 10 | 135 | 301 | 0.93
8 | CN1C(=O)c2cc(CCOc3cc[n+]([O-])c4ccccc34)cnc2N(C2CC2)c2nc(Cl)ccc21 [compound 10, 2-Chloro-11-cyclopropyl-5,11-dihydro-5-methyl-8-{2-{(1-oxido-4-quinolinyl)oxy}ethyl}-6H-dipyrido[3,2-b:2′,3′-e][1,4]diazepin-6-one] | – | 67 | 1420 | 255 | 206 | 1370 | 41 | 229 | 710 | –
9 | Cc1ccnc2c1NC(=O)c1cc(CCOc3cc[n+]([O-])c4ccccc34)cnc1N2C1CC1 [compound 15] | 93 | 66 | > 10000 | 215 | 226 | 206 | 61 | 270 | 1520 | –
10 | CCN1c2nc(Cl)ccc2NC(=O)c2cc(CCOc3cc[n+]([O-])c4ccccc34)cnc21 [compound 22, 2-Chloro-5,11-dihydro-11-ethyl-8-{2-{(1-oxido-4-quinolinyl)-oxy}ethyl}-6H-dipyrido[3,2-b:2′,3′-e][1,4]diazepin-6-one] | – | – | 2990 | – | – | 2490 | 45 | – | 336 | –
11 | CCN1c2ncc(CCOc3cccc4c3ccc[n+]4[O-])cc2C(=O)Nc2c(C)cc(F)nc21 [compound 23, 5,11-Dihydro-11-ethyl-2-fluoro-4-methyl-8-{2-{(1-oxido-5-quinolinyl)-oxy}ethyl}-6H-dipyrido[3,2-b:2′,3′-e][1,4]diazepin-6-one] | – | – | 5610 | – | – | 105 | 6.1 | – | 247 | –
12 | CCN1C(=O)c2cc(CCOc3cc[n+]([O-])c4ccccc34)cnc2N(CC)c2ncccc21 [compound 27, 5,11-Dihydro-5,11-diethyl-8-{2-{(1-oxido-4-quinolinyl)oxy}ethyl}-6H-dipyrido[3,2-b:2′,3′-e][1,4]diazepin-6-one] | – | – | 5340 | – | – | 2270 | 38 | – | 299 | –
